US11318113B2, “Compounds for the treatment of diseases linked to mitochondrial reactive oxygen species (ROS) production” (OP2 DRUGS, priority 2015, dated 2022)

Tests used:
[1] = test system: isolated pancreatic islets from mice; test: Glucose-stimulated insulin secretion (GSIS) in isolated pancreatic islets; assay type: cell-based, mouse; details: AOL 10 and 20 μM, 1 hour
Description: Pancreatic islets were isolated using the collagenase digestion method. Briefly, pancreas was inflated with Hanks solution containing 0.33 mg/mL of collagenase (Sigma-Aldrich), 5.6 mM glucose and 1% bovine serum albumin, pH 7.35, removed and kept at 37° C. for 6-9 minutes. After tissue digestion and exocrine removal by three consecutive washes, the islets were manually collected, under a binocular magnifier. Islets were left recovering from digestion by culturing for 20-24 hours in RPMI-1640 medium containing 11 mM glucose (Invitrogen, Calif., USA) and supplemented with 2 mM glutamine, 200 IU/mL penicillin, 200 μg/mL streptomycin and 8% fetal bovine serum stripped with charcoal-dextran (Invitrogen).
For each static GSIS experiment, islets from two mice were first incubated for 2 hours at 37° C. in 3 mL Krebs-bicarbonate buffer solution (in mM): […], 2 HEPES and 3 glucose, equilibrated with a mixture of 95% O2:5% CO2, pH 7.4. […] Insulin secretion in each well was calculated as ng of insulin per islet and per hour of incubation, and then expressed as percentage of insulin secretion in 11 mM glucose vehicle group, which was considered 100%.

Sod2-KO mice = test: Sod2-KO mice: lifespan, heart SDH activity, liver Oil Red O staining; assay type: in vivo, mouse
Excerpt: Mice deficient in mitochondrial Mn-Superoxide Dismutase (Sod2-KO) on a CD1-background were used. This genetic alteration leads to an adverse phenotype and the death of animals at an average of 8 days old. Mitochondrial superoxide dismutase is a free radical scavenging enzyme which transforms superoxide (highly reactive) into hydrogen peroxide (less reactive), that could then cross mitochondrial membranes and be detoxified by matrix and cytosolic anti-oxidant systems. The aim of this study was to test if AOL could rescue the Sod2-KO phenotype through its activity on IQ superoxide production.
After birth, pups were genotyped (3 day-old) and the litter size was reduced to 6 pups per cage. Animals were then treated (AOL in Kolliphor®—5 mg/kg) or not (Kolliphor® only, noted KOL below). […] Two studies were conducted on two different generations from the same parents: lifespan; and succinate dehydrogenase activity in heart (SDH) and Oil Red O staining in liver. Animals were weighed and injected (intraperitoneal) daily.
Succinate dehydrogenase activity is a marker of superoxide in the mitochondrial matrix. Thus, a lack of SOD2 is associated with a decrease of SDH activity in heart. The aim of this experiment was to test whether or not AOL could restore SDH activity in KO mice.
However, the direct link between superoxide/hydrogen peroxide production and liver lipid accumulation is not established. The aim of the study was to test the potency of AOL to prevent liver lipid accumulation in Sod2-KO mice.
Animals were injected once a day from 3 days old until their death.
In this study, animals were treated daily (5 mg/kg) from day 3 to day 5. Heart and liver were harvested at day 6.

[2] = test system: other mitochondrial sites of ROS production (site IIIQO, site IF); test: Mitochondrial ROS/H2O2 production (Amplex Red/HRP) after rotenone, antimycin A, myxothiazol; assay type: biochemical, rat; details: AOL 5 to 80 μM
Description: Rates of ROS/H2O2 production from heart mitochondria were assessed through the oxidation of the colorless, non-fluorescent indicator Amplex Red in the presence of exogenous horseradish peroxidase (HRP, EC 1.11.1.7, Sigma). H2O2 reacts with Amplex Red in a 1:1 stoichiometry, yielding the fluorescent compound resorufin (excitation: 560 nm; emission: 585 nm) which is stable once formed. Fluorescence was measured continuously with a spectro-fluorometer equipped with temperature control and stirring (SAFAS Xenius, Monaco). Isolated mitochondria (0.1 mg/mL) were incubated in the same experimental buffer than previously, supplemented with 15 μM Amplex Red and 10 μg/mL HRP. Glutamate (5 mM)/malate (2.5 mM) together with succinate (5 mM) were used as complex I and complex II substrates, respectively. Experiments were conducted under non-phosphorylating conditions in the presence of 15 μM atractyloside, i.e. under state IV conditions where mitochondrial membrane […]. […]
FIG. 3 illustrates the effect of the presence of increasing concentrations of AOL (from 5 to 80 μM) on ROS/H2O2 production measured under the different conditions defined in FIG. 2. […]

COc1ccc(-c2cc(=S)ss2)cc1 [AOL, 5-(4-methoxyphenyl)-3H-1,2-dithiole-3-thione]
GSIS increase as compared to the 11 mM glucose vehicle group [1]: 65-75% | liver lipid droplets density (Oil Red O) (Sod2-KO mice; 5 mg/kg daily day 3 to day 5): decreased | liver total lipid area (Oil Red O) (Sod2-KO mice; 5 mg/kg daily day 3 to day 5): able to restore | SDH activity in heart (Sod2-KO mice; 5 mg/kg daily day 3 to day 5, not restored to WT levels): very slight increase | lifespan extension as compared to untreated mice (Sod2-KO mice; 5 mg/kg ip daily): up to 2 days | median lifespan and maximal lifespan (Sod2-KO mice; 5 mg/kg ip daily): slightly improved | lower body weight and body weight gain of KO mice (Sod2-KO mice; 5 mg/kg ip daily, day 8 to 12): tends to alleviate | ROS/H2O2 production under the other conditions [2]: no statistical differences were observed
